The values that follow are results of earlier work, collected in patent US20260373126A1, “COMPOSITIONS AND METHODS OF TREATING CANCER” (Board of Supervisors of Louisiana State University and …, priority 2022, published 2026).

In this series the test system is mitochondrial respiration. The settings on record: reference 2.

Regarding `CC(C)OC(=O)C(C)(C)Oc1ccc(C(=O)c2ccc(Cl)cc2)cc1` [FF, Fenofibrate], the mitochondrial respiration result was “blocked mitochondrial respiration”.
